Consider 1 compound from patent EP4670722A1, “PROPHYLACTIC OR AMELIORATING AGENT FOR CELL AGING” (Kyowa Pharma Chemical Co., Ltd., priority 2023, dated 2024).

One experiment concerns type I collagen. Put plainly: Type I collagen expression analysis (ELISA). Format: cell-based, Human. As to conditions: at a concentration of at least 100 µg/mL or more, 48 hours; effect increased from 100 µg/mL to 200 µg/mL; Fig. 9. How it is done: Human normal dermal fibroblasts (NB1RGB) with a PDL of 30 or less were cultured in DMEM (Dulbecco's Modified Eagle Medium, manufactured by Nissui Pharmaceutical Co., Ltd.) containing 10% FBS. The cultured cells were collected by trypsin treatment. The collected cells were seeded in a 96-well plate, and when they reached 100% confluence, FBS-free DMEM containing the test sample (2'-FL and sucrose) at 50 µg/mL, 100 µg/mL, or 200 µg/mL was added, and after culturing for 48 hours in a 37°C, 5% CO2 incubator, the culture supernatant was collected. The culture supernatant was centrifuged, and the resulting supernatant was used as a sample.
The culture supernatant was collected and used as a sample in the same manner as in [Example 8-1], except that FBS-free DMEM not containing the test sample was used instead of FBS-free DMEM containing the test sample.
An Enzyme-Linked Immunosorbent Assay (ELISA) method was performed using an antibody against type I collagen to measure the amount of type I collagen in the samples. […] After stopping the reaction, the absorbance at a measurement wavelength of 450 nm was measured using a microplate reader. […] The relative value of the type I collagen amount when each test sample was added was calculated, with the type I collagen amount in the control set to 1.
Background: ELISA stands for enzyme-linked immunosorbent assay.

Experiment [1] concerns Human normal dermal fibroblasts (NB1RGB) with a PDL of 30 or less. Put plainly: Cell viability (Cell Counting Kit-8) of tunicamycin-treated dermal fibroblasts. Format: cell-based. As to conditions: NB1RGB PDL of 30 or less, tunicamycin 0.3 µg/mL, 50 µg/mL to 200 µg/mL, 24 hours; effect increased as content increased; Fig. 6. How it is done: Human normal dermal fibroblasts (NB1RGB) with a PDL of 30 or less were cultured using DMEM containing 10% FBS. The cultured cells were collected by trypsin treatment. The collected cells were seeded in a 96-well plate, and when they reached 100% confluence, tunicamycin was added at 0.3 µg/mL, and the cells were cultured for 24 hours. A group was also prepared in which FBS-free DMEM medium containing a test sample (2'-fucosyllactose) at 50 µg/mL, 100 µg/mL, or 200 µg/mL was added simultaneously with tunicamycin, and cultured for 24 hours. After completion of culture, the viability of human normal dermal fibroblasts was evaluated using Cell Counting Kit-8 (manufactured by Dojindo Laboratories). The measurement wavelength (As) was set to 450 nm, and the reference wavelength was set to 620 nm.
Human normal dermal fibroblasts with a PDL of 30 or less were cultured and the absorbance at a measurement wavelength of 450 nm was measured in the same manner as in Example 5-1, except that tunicamycin and the test sample were not added. The obtained absorbance was designated as Ab, and the cell viability represented by the above formula (1) was determined.
(Formazan colour is commonly taken as a measure of viable cells.)

Experiment [2] concerns Human normal epidermal keratinocytes (HaCaT). Put plainly: Cell proliferation rate (MTT) of normal epidermal keratinocytes. Format: cell-based. As to conditions: 50 µg/mL to 200 µg/mL in medium, 2 days, activity increased as content increased, Fig. 1. The procedure:
Human normal epidermal keratinocytes (HaCaT) were cultured using DMEM containing 10% FBS. The cultured cells were collected by trypsin treatment. The collected cells were seeded in a 96-well microplate at a concentration of 5.0 x 10^3 cells/well and cultured overnight. Thereafter, the cells were cultured for 2 days at 37°C in a medium for epidermal keratinocyte proliferation (FBS-free) to which a test sample (sucrose or 2'-fucosyllactose) was added to a concentration of 50 µg/mL, 100 µg/mL, or 200 µg/mL. The medium was replaced with FBS-free DMEM medium, then 10 µL/well of 5 mg/mL 3-[4,5-dimethylthiazol-2-yl]-2,5-diphenyltetrazolium bromide (MTT) was added, and the cells were cultured at 37°C for 3 hours. After completion of culture, formazan produced in the cells was extracted with 100 µL of dimethyl sulfoxide (DMSO). After extraction, the absorbance of formazan (As, 492 nm) was measured with a microplate reader. The reference wavelength was set to 620 nm.
Human normal epidermal keratinocytes were cultured and the absorbance of formazan was measured in the same manner as in Example 1-1, except that no test sample was added. The obtained absorbance was designated as Ab, and the cell proliferation rate represented by the following formula (1) was determined. Cell proliferation rate(%) = 100 x As/AB [formula]

The next experiment has as its system GLS1. Put plainly: GLS1 expression analysis (ELISA) in KKLS. Type of experiment: cell-based. Conditions: human gastric undifferentiated carcinoma cells (KKLS), at least 200 µg/mL or more, 24 hours; effect increased from 200 to 1000 µg/mL; Fig. 12. The procedure:
Human gastric undifferentiated carcinoma cells (KKLS) were cultured in RPMI 1640 (manufactured by Nissui Pharmaceutical Co., Ltd.) containing 10% FBS. The cultured cells were collected by trypsin treatment. The collected cells were seeded in a 6-well plate, and when they reached 100% confluence, RPMI 1640 containing the test sample (2'-FL and lactose) at 50 µg/mL, 200 µg/mL, or 1000 µg/mL was added, and cultured for 24 hours in a 37°C, 5% CO2 incubator. The culture supernatant was removed, the cells were washed twice with PBS, and 0.20 mL of RIPA buffer was added to extract total protein. Protein in each protein extract was quantified by the Bradford assay.
Protein extracts were collected in the same manner as in [Example 10-1 B. Human gastric undifferentiated carcinoma cells (KKLS)], [Example 10-1 C. Mouse microglial cells (BV2)], [Example 10-1 D. Human gingival fibroblasts (Gin-1)], and [Example 10-1 E. Human umbilical vein endothelial cells (HUVEC)], respectively, except that a medium same as the above-mentioned medium but not containing the test sample was used instead of the medium containing the test sample, and protein in each protein extract was quantified by the Bradford assay.
An ELISA method was performed using an antibody against GLS1 to measure the amount of GLS1 in the samples. […]

Molecules are shown by their SMILES.

Take `C[C@@H]1O[C@@H](O[C@H]2[C@H](O[C@H]3[C@H](O)[C@@H](O)C(O)O[C@@H]3CO)O[C@H](CO)[C@H](O)[C@@H]2O)[C@@H](O)[C@H](O)[C@@H]1O` (stereo partly shown) [2'-FL, 2'-fucosyllactose]: the “expression level of type I collagen” value in the experiment on type I collagen is listed as “increased the expression level of type I collagen”. Moreover, in experiment [1], the “endoplasmic reticulum stress (cell viability)” value is recorded as “ameliorated endoplasmic reticulum stress”. Further, in experiment [2], the “proliferation activity of normal epidermal cells (cell proliferation rate)” value is “improved the proliferation activity of normal epidermal cells”. Besides, the GLS1 expression entry in the experiment with GLS1 is reported as “suppressed GLS1 expression”.
